Counter-ions that a name gives are not always drawn.

The test system of one data set is tumor-bearing hosts. The conditions noted are these: literature; cited from earlier work.
A further data set deals with human subjects. As to conditions: single rapid injections of 40 mg, intravenous or intra-arterial; cited from earlier work.
Another data set has as its system CT26 tumors. As to the kind of experiment: Growth inhibition of s.c. footpad CT26 tumors in CB6F1 mice by daily i.p. adenine nucleotides (Table 1). It is filed as in vivo, mouse. As to conditions: 0.5 × 10^6 cells, 1 ml of 50 mM i.p. daily. The method, then:
(§1) The tumor cell lines employed were CT26, a mouse undifferentiated, aggressive colon carcinoma, and CAPAN-1, a well-differentiated human pancreatic adenocarcinoma. […] The cells are shown to be free of Mycoplasma contamination. Cells are cultured at 37° C. in a humidified atmosphere of 5% CO2 /95% air in MEM supplemented with antibiotics (100 units of penicillin per ml and 100 μg streptomycin per ml), L-glutamine (2 mM), non-essential amino acids (0.1 mM), sodium pyruvate (1 mM), and 10% fetal bovine serum.
(§2) In the tests, females and males CB6F1 mice (a standard F1 hybrid of BALB/C and C57BL/6) obtained from Jackson Laboratories, Bar Harbor, Maine and athymic outbred NCr nu/nu mice (males and females) from the Department of Radiation Medicine, Massachusetts General Hospital, Boston, Mass. 02114 are used. All the mice are kept for at least two weeks before inoculation of the tumors and the start of treatment and are 7-9 weeks old (CB6F1) or 6-7 weeks old (athymic nu/nu) at the start of the procedure. Animals weigh 20-25 g (females) or 23-28 g (males), are housed 5-12 per cage, and have ad libitum access to food and water.
(§3) Tumor cells are removed from subconfluent cultures by a mild trypsin-EDTA treatment, the cell pellet is washed once with MEM without serum and the cells are suspended at the desired cell numbers in PBS (phosphate-bufferedsaline, 8 g NaCl, 0.2 g KCl, 1.15 g Na2 HPO4.7H2 O, and 0.2 g KH2 PO4 per liter). Cell suspensions are shown to be at least 90% viable by trypan blue exclusion. Mice are injected subcutaneously in the right hind footpad with tumor cells suspended in 50 μl of PBS. The regular protocol (unless otherwise stated) consists of daily i.p. injections of 1 ml of 0.85% NaCl solution or 1 ml of 50 mM of AMP, ADP, or ATP in 0.85% NaCl (from stock solutions adjusted to pH 6.2) starting one day after tumor inoculation and given for ten consecutive days.
(§4) Injections are administered with 30 gauge needles and the mice are lightly anesthetized with ether. The mice are weighed before the start of treatment and once a week during and after treatment. After the tumors become palpable, tumor sizes are determined every three days. The animals are sacrificed, tumors are excised and weighed before they reach 10% of the animals' weight.
The growth inhibitory properties of adenine nucleotides against CT26 murine colon carcinoma, which are inoculated s.c. in the hind footpad of CB6F1 mice, are illustrated in Table 1 hereinbelow. […] No significant differences between males and females are observed either in the rate of tumor growth or in the tumor's response to adenine nucleotides treatment.

The subject of a further data set is CAPAN-1 xenografts. Kind of data set: Arrest of growth of CAPAN-1 xenografts in athymic nu/nu mice (Table 2). Type of data set: in vivo, human. As to conditions: experiment 5, 10 F, 0.5 × 10^5 cells, 9 weeks, 1 ml of 50 mM i.p. The method, then: as §1, §2, §3, §4
The effects of AMP, ADP, and ATP on human tumor xenografts in nude mice were evaluated utilizing the pancreatic ductal adenocarcinoma CAPAN-1 (see Kyriazis AP, Kyriazis AA, Scarpelli DG, Fogh J, Rao SM, Lepera R., "Human Pancreatic Adenocarcinoma Line CAPAN-1 in Tissue Culture and the Nude Mouse", Am. J. Pathol., 1982, 106, 250-260).
Treatment schedules consist of single daily i.p. injections for 10 consecutive days, starting one day after tumor inoculation. Tumor burden is relatively low (0.5-1×10^5 cells implanted) and tumor growth is slow (tumors became palpable 4-6 weeks after inoculation).

A short description of data set [1]: ATP levels in mouse blood (total cellular) and plasma after i.p. injection (Table 3). The conditions noted are these: CB6F1; for Blood ATP levels: total cellular. It is filed as in vivo. The protocol: The mice are anesthetized with ether during the procedure. The plasma is prepared by immediate centrifugation of the blood in a Beckman microfuge (30 sec at 8000 xg). Blood (20 μl) or plasma (100 μl) aliquots are added to 1 ml of cold 7% trichloroacetic acid. […] The determination of ATP levels in the extracts is performed by bioluminometry (luciferinluciferase) using a Turner Designs Bioluminescence Photometer.

The nature of data set [2]: Host toxicity (deaths, body weight) in treated mice. Type of data set: in vivo, mouse. As to conditions: i.p. injections of adenine nucleotides. The protocol:
as §3, §4

The test system of a further data set is tumor cells. As to conditions: low doses; prior application Ser. No. 397,897; cited from earlier work.
The test system of data set [3] is blood plasma phosphodiesterase. As to conditions: anticoagulant; chelation of divalent cations; cited from earlier work.
Setting [4] is: experiment 3, 12 M per group, day 13.
Setting [5] is: experiment 4, 11 F per group, day 14.
Where [6] appears, read: 1 hour after i.p. 1 ml of 50 mM.
Setting [7] is: 5 hours after i.p. 1 ml of 50 mM.

On to insulin: the anabolic hormone insulin, for which, in the data set on tumor-bearing hosts, the “Effect against rapid weight losses in tumor-bearing hosts” value was “effective against rapid weight losses in tumor-bearing hosts” and the “Effect on growth of the tumor itself” value is listed as “do not inhibit the growth of the tumor itself”.

`Nc1ncnc2c1ncn2[C@@H]1O[C@H](COP(=O)(O)OP(=O)(O)OP(=O)(O)O)[C@@H](O)[C@H]1O` [sodium salt of ATP, reference compound]: the “Subjective and physiological changes in human subjects” value in the data set with human subjects was “small subjective and physiological changes in human subjects”.

In the data set with CT26 tumors (setting [4]), `Nc1ncnc2c1ncn2[C@@H]1O[C@H](COP(=O)(O)OP(=O)(O)O)[C@@H](O)[C@H]1O` [ADP, adenosine 5'-diphosphate] registered a Tumor diameter of 1.3 ± 0.2 cm and a Tumor weight of 0.73 ± 0.23 g. In the data set with CT26 tumors (setting [5]), this compound gave a Tumor diameter of 1.1 ± 0.2 cm and a Tumor weight of 0.86 ± 0.27 g. In addition, the Arrested tumors/implanted tumors in the data set on CAPAN-1 xenografts is reported as 6/10. Moreover, in data set [1] (setting [6]), the “Plasma ATP levels” value came to 2.66 ± 0.46 µM and the “Blood ATP levels” value is 1.28 ± 0.30 mM. Moreover, in data set [1] (setting [7]), the “Plasma ATP levels” value was found to be 2.75 ± 0.87 µM and the “Blood ATP levels” value is 1.65 ± 0.41 mM. Also, the Deaths entry in data set [2] was “Occasionally, an animal treated with ATP or ADP would die a few hours after injection”. Besides, the “Effect on growth of tumor cells in vitro (in words)” value in the data set with tumor cells was “marked inhibition of DNA synthesis and arrest of significant populations of cells in the S phase of their cycle”.

Take `O=C(O)CC(O)(CC(=O)O)C(=O)O` [Citrate]: the “Inhibition of blood plasma phosphodiesterase activity” value in data set [3] is “inhibit the activity of a blood plasma phosphodiesterase”.
